Results: patent publication US12692233B2, “Anthelmintic compounds comprising a pyridine structure” (Intervet Inc., priority 2020, dated 2026)

Legend:
[1] = system: Oesophagostumum dentatum; test: In vitro assay Oesophagostumum dentatum larval stage 3; assay type: cell-based; details: larval stage 3, 20 larvae per well, microscopic examination; read-out: MEC (minimum effective concentration) against Oesophagostumum dentatum L3
Description: (§1) […] galli (intestinal roundworm of chicken), larval stage 3 (“L3”); and Oesophagostumum dentatum (nodular worm of swine), larval stages 3 and 4 (respectively “L3” and “L4”) where suspended in a nutrient medium and distributed to 96 well plates with 20 larvae per well. The wells were spiked DMSO solutions of the compounds with declining concentration.

[2] = system: Dirofilaria immitis; test: In vitro assay Dirofilaria immitis L1 (microfilaria), motility; assay type: cell-based; details: 72 h, 3 days incubation, reduction in motility vs DMSO
Protocol: (§2) Approximately 500 D. immitis microfilaria were added to a microtiter plate containing a nutrient medium and the test compound in DMSO at varying concentrations. After incubation for 3 days, activity was evaluated as reduction in motility as compared to DMSO as negative control. Compounds were tested in duplicates. Based on the concentration response curves EC50 values were calculated.

[3] = biological target: T1, human Maxi K channel (BK channel) (Homo sapiens, UniProt Q12791); test: Agonistic activity at the human Maxi K channel (BK channel), FLIPR membrane potential in CHO K1 cells; assay type: cell-based; details: CHO K1 cells stably transfected with KCNMA1 and beta1 (KCNMB1) subunits, membrane potential dye
T1 construct: expressed in transfected cells; host or cells: CHO K1
T1 sequence (Q12791 1-1178 isoform Q12791-5): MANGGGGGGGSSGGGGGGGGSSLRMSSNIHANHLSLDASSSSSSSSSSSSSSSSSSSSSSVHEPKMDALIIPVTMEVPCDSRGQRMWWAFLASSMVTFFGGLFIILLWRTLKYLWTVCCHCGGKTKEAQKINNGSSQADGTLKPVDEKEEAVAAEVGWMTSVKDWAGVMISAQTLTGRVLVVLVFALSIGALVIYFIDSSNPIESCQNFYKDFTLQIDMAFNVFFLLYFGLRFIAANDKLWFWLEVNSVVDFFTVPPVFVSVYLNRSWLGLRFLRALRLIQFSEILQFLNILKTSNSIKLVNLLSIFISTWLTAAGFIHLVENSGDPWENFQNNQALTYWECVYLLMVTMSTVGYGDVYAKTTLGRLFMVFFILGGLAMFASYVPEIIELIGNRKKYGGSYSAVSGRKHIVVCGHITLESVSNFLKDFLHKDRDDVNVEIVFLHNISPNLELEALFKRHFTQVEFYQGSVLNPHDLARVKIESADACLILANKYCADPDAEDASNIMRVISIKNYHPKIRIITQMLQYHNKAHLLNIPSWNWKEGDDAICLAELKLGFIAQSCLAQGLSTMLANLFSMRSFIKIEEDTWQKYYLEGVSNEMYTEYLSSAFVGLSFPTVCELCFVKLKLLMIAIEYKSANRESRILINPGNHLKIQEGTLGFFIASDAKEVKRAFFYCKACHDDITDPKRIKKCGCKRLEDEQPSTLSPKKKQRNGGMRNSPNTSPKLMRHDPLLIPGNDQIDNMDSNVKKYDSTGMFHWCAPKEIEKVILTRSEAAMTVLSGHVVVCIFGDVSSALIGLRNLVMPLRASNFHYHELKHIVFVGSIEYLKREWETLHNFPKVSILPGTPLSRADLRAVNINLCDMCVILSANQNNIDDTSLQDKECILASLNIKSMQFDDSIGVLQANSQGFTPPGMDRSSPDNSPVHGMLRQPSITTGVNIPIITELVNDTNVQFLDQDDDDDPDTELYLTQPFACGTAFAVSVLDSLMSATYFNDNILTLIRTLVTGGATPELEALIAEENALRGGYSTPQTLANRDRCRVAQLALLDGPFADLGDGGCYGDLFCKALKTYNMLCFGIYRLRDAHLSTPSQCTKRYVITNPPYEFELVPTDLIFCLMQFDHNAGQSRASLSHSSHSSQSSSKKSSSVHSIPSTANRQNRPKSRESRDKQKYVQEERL
T1 sequence (Q16558 whole entry partner): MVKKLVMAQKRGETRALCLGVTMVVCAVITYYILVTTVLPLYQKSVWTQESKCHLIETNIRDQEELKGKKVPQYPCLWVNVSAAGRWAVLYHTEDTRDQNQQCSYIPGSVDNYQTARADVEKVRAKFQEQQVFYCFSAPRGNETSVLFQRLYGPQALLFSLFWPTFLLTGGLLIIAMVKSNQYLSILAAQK
Description: A CHO K1 cell line was stably transfected with the KCNMA1 (KCa1.1, U11058) and beta1 (KCNMB1) subunits of the human Maxi K channel (Ponte et al, Molecular Pharmacology 2012, 81(4), 567-577).
The complete measurement takes 150 s.

[4] = system: Ascaridia galli; test: In vitro assay Ascaridia galli larval stage 3; assay type: cell-based; details: larval stage 3, 20 larvae per well, microscopic examination, read-out: MEC (minimum effective concentration) against Ascaridia galli L3
Description: as §1

[5] = biological target: C. elegans Slo-1a (Caenorhabditis elegans, UniProt Q95V25); test: Agonistic activity at C. elegans Slo-1a, FLIPR membrane potential in CHO K1 cells; details: EC50 agonistic activity at C. elegans Slo-1a, CHO K1 cells stably transfected with slo-1a, membrane potential dye
Chain of C. elegans Slo-1a (Q95V25 whole entry): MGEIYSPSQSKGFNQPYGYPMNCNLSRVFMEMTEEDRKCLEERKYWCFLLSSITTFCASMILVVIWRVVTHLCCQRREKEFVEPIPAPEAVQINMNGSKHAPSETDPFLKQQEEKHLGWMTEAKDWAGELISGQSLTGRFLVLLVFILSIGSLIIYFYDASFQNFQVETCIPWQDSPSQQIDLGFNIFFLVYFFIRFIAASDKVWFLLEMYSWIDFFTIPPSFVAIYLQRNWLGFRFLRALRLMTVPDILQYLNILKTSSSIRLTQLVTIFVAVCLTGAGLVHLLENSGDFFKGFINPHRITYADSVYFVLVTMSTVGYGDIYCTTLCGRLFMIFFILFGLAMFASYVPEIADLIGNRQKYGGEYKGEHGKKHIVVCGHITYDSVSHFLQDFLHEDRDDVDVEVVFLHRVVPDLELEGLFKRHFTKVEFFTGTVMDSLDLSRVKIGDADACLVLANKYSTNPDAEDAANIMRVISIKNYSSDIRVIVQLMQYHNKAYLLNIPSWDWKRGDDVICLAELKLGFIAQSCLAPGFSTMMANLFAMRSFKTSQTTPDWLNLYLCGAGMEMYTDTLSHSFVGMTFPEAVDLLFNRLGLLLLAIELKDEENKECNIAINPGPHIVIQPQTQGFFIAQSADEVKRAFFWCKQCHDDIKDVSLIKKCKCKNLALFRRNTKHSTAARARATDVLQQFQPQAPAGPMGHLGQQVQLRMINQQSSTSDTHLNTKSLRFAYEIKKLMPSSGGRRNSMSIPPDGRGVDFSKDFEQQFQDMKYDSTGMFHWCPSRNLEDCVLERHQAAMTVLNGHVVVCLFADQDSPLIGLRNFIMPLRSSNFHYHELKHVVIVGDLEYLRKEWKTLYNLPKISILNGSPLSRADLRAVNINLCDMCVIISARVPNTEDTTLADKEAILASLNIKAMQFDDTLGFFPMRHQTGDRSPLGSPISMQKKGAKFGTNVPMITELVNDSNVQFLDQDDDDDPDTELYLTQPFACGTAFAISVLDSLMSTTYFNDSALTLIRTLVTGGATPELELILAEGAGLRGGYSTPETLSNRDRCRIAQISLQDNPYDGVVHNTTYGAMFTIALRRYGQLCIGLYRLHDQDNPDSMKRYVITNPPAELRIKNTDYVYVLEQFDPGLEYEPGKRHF

[6] = system: Oesophagostumum dentatum; test: In vitro assay Oesophagostumum dentatum larval stage 4; assay type: cell-based; details: larval stage 4, 20 larvae per well, microscopic examination; read-out: MEC (minimum effective concentration) against Oesophagostumum dentatum L4
Description: as §1

[7] = system: Acanthocheilonema viteae; test: In vitro assay Acanthocheilonema viteae L1 (microfilaria), motility; assay type: cell-based; details: 72 h, 3 days incubation, reduction in motility vs DMSO
Protocol: as §2, with “A. viteae” for “D. immitis”

SMILES	EC50 [3]	EC50 [5]	EC50 [7]	minimal effective concentration [1]	EC50 [2]	minimal effective concentration [4]	minimal effective concentration [6]
CN(C)c1cc([S+]([O-])c2cc(Cl)cc(Cl)c2)ncc1C(=O)N[C@H]1CCCc2ccccc21 (some centres unmarked) [Compound 101]	> 30 µM			≤ 50 µM	< 10 µM		
O=C(Nc1cccc2ccccc12)c1cnc(Oc2cccc(Cl)c2Cl)cc1N1CCOCC1 [Compound 45]	> 30 µM				< 10 µM		
O=C(Nc1csc2ccccc12)c1cnc(Sc2cccc(Cl)c2Cl)cc1N1CCOCC1 [Compound 48]	> 30 µM					≤ 50 µM	≤ 50 µM
CN(C)c1cc(Oc2cc(Cl)cc(Cl)c2)ncc1C(=O)N[C@@H]1CCOc2ccccc21 [Compound 29]	> 30 µM				< 10 µM	≤ 50 µM	≤ 50 µM
CCSc1cc(Sc2cccc(Cl)c2Cl)ncc1C(=O)N[C@H]1CCCc2ccccc21 [Compound 62]	> 30 µM			≤ 50 µM		≤ 50 µM	
COc1cc(Oc2cccc(Cl)c2Cl)ncc1C(=O)N[C@H]1CCOc2ccccc21 [Compound 95]	> 30 µM		< 10 µM		< 10 µM	≤ 50 µM	
O=C(N[C@@H]1CCOc2ccccc21)c1cnc(Sc2cccc(Cl)c2Cl)cc1N1CCOCC1 [Compound 50]	> 30 µM				< 10 µM		
COc1cc(Oc2cc(Cl)cc(Cl)c2)ncc1C(=O)N[C@H]1CCCc2ccccc21 [Compound 85]	> 30 µM			≤ 50 µM	< 10 µM	≤ 50 µM	
COc1cc(Sc2cccc(Cl)c2Cl)ncc1C(=O)N[C@H]1CCOc2ccccc21 [Compound 68]	> 30 µM	< 10 µM					≤ 50 µM
CCOc1cc(Oc2cccc(Cl)c2Cl)ncc1C(=O)N[C@H]1CCOc2ccccc21 [Compound 92]	> 30 µM						≤ 50 µM
CN(C)c1cc(Sc2cc(Cl)cc(Cl)c2)ncc1C(=O)Nc1cccc2ccccc12 [Compound 16]	> 30 µM			≤ 50 µM		≤ 50 µM	
CCOc1cc(Sc2cc(Cl)cc(Cl)c2)ncc1C(=O)N[C@H]1CCc2ccccc21 [Compound 97]	> 30 µM		< 10 µM				
COc1cc(Sc2cccc(Cl)c2Cl)ncc1C(=O)N[C@H]1CCCc2ccccc21 [Compound 66]	> 30 µM	< 10 µM		≤ 50 µM			≤ 50 µM
COc1cc(Sc2cccc(Cl)c2Cl)ncc1C(=O)N[C@H]1CCc2ccccc21 [Compound 67]	> 30 µM	< 10 µM	< 10 µM			≤ 50 µM	≤ 50 µM
COc1cc(Oc2cccc(Cl)c2Cl)ncc1C(=O)N[C@H]1CCc2ccccc21 [Compound 94]	> 30 µM		< 10 µM		< 10 µM		
COc1cc(Sc2cc(Cl)cc(Cl)c2)ncc1C(=O)N[C@H]1CCc2ccccc21 [Compound 84]	> 30 µM	< 10 µM	< 10 µM	≤ 50 µM			≤ 50 µM
CSc1cc(Sc2cccc(Cl)c2Cl)ncc1C(=O)N[C@H]1CCc2ccccc21 [Compound 53]	> 30 µM	< 10 µM					≤ 50 µM
CN(C)c1cc(Oc2cc(Cl)cc(Cl)c2)ncc1C(=O)Nc1cccc2ccccc12 [Compound 32]	> 30 µM			≤ 50 µM	< 10 µM		
CN(C)c1cc(Oc2cccc(Cl)c2Cl)ncc1C(=O)Nc1csc2ccccc12 [Compound 37]	> 30 µM		< 10 µM			≤ 50 µM	≤ 50 µM
O=C(Nc1csc2ccccc12)c1cnc(Oc2cccc(Cl)c2Cl)cc1N1CCOCC1 [Compound 46]	> 30 µM		< 10 µM		< 10 µM		
CN(C)c1cc(S(=O)(=O)c2cc(Cl)cc(Cl)c2)ncc1C(=O)N[C@H]1CCCc2ccccc21 [Compound 102, (S)-6-((3,5-dichlorophenyl)sulfonyl)-4-(dimethylamino)-N-(1,2,3,4-tetrahydronaphthalen-1-yl)nicotinamide]	> 30 µM				< 10 µM		≤ 50 µM
CCOc1cc(Oc2cc(Cl)cc(Cl)c2)ncc1C(=O)N[C@H]1CCc2ccccc21 [Compound 90]	> 30 µM		< 10 µM	≤ 50 µM		≤ 50 µM	
O=C(N[C@@H]1CCOc2ccccc21)c1cnc(Oc2cc(Cl)cc(Cl)c2)cc1N1CCOCC1 [Compound 24]	> 30 µM			≤ 50 µM	< 10 µM		≤ 50 µM
O=C(N[C@H]1CCc2ccccc21)c1cnc(Sc2cccc(Cl)c2Cl)cc1N1CCOCC1 [Compound 23]	> 30 µM	< 1 µM			< 10 µM	≤ 50 µM	
CN(C)c1cc([S+]([O-])c2cc(Cl)cc(Cl)c2)ncc1C(=O)N[C@H]1CCOc2ccccc21 (some centres unmarked) [Compound 103]	> 30 µM	< 10 µM		≤ 50 µM	< 10 µM	≤ 50 µM	≤ 50 µM
CSc1cc(Oc2cccc(Cl)c2Cl)ncc1C(=O)N[C@H]1CCOc2ccccc21 [Compound 57]	> 30 µM		< 10 µM			≤ 50 µM	
COc1cc(Oc2cccc(Cl)c2Cl)ncc1C(=O)N[C@H]1CCCc2ccccc21 [Compound 96]	> 30 µM				< 10 µM	≤ 50 µM	
CN(C)c1cc(Nc2cc(Cl)cc(Cl)c2)ncc1C(=O)N[C@H]1CCc2ccccc21 [Compound 116]	> 30 µM	< 10 µM		≤ 50 µM		≤ 50 µM	≤ 50 µM

Second part, led by results:

EC50 [3]	EC50 [5]	EC50 [7]	SMILES	minimal effective concentration [1]	EC50 [2]	minimal effective concentration [4]	minimal effective concentration [6]
10 to 30 µM	< 10 µM		O=C(N[C@H]1CCc2ccccc21)c1cnc(Nc2cc(Cl)cc(Cl)c2)cc1N1CCOCC1 [Compound 109]	≤ 50 µM		≤ 50 µM	
> 30 µM	< 10 µM		O=C(N[C@H]1CCCc2ccccc21)c1cnc(Cc2cc(Cl)cc(Cl)c2)cc1N1CCOCC1 [Compound 113]	≤ 50 µM			
> 30 µM	< 10 µM		COc1cc(Sc2cc(Cl)cc(Cl)c2)ncc1C(=O)N[C@H]1CCOc2ccccc21 [Compound 83]	≤ 50 µM		≤ 50 µM	
> 30 µM			CN(C)c1cc(Cc2cc(Cl)cc(Cl)c2)ncc1C(=O)N[C@H]1CCCc2ccccc21 [Compound 111]	≤ 50 µM			≤ 50 µM
	< 10 µM		O=C(N[C@H]1CCc2ccccc21)c1cnc(Cc2cc(Cl)cc(Cl)c2)cc1N1CCOCC1 [Compound 117]	≤ 50 µM		≤ 50 µM	≤ 50 µM
> 30 µM	< 10 µM		CN(C)c1cc(S(=O)(=O)c2cc(Cl)cc(Cl)c2)ncc1C(=O)N[C@H]1CCOc2ccccc21 [Compound 100]	≤ 50 µM		≤ 50 µM	
> 30 µM	< 10 µM		O=C(N[C@H]1CCOc2ccccc21)c1cnc(Cc2cc(Cl)cc(Cl)c2)cc1N1CCOCC1 [Compound 112]	≤ 50 µM		≤ 50 µM	
> 30 µM			CSc1cc(Oc2cc(Cl)cc(Cl)c2)ncc1C(=O)N[C@@H]1CCOc2ccccc21 [Compound 60]	≤ 50 µM			
> 30 µM			CCSc1cc(Sc2cc(Cl)cc(Cl)c2)ncc1C(=O)N[C@H]1CCOc2ccccc21 [Compound 74]	≤ 50 µM			≤ 50 µM
> 30 µM	< 10 µM		CN(C)c1cc(Nc2cc(Cl)cc(Cl)c2)ncc1C(=O)N[C@H]1CCOc2ccccc21 [Compound 115]	≤ 50 µM		≤ 50 µM	
> 30 µM			CN(C)c1cc(Cc2cc(Cl)cc(Cl)c2)ncc1C(=O)N[C@H]1CCc2ccccc21 [Compound 110]	≤ 50 µM			≤ 50 µM
> 30 µM			COc1cc(Oc2cc(Cl)cc(Cl)c2)ncc1C(=O)N[C@H]1CCOc2ccccc21 [Compound 86]	≤ 50 µM			
